According to US8790718B2, “Method of disinfection or infection control against norovirus” (Hiroshima University, priority 2007, dated 2014):

System: norovirus
Test: Anti-norovirus characteristics test (viral genome RNA by real-time PCR)
Settings: comparative test results of Example 1
Method: A frozen stock solution of a norovirus isolated from stools of a patient and cryopreserved at −80° C. was thawed on ice. A hundred microliters of the norovirus stock solution was diluted ten times with phosphate-buffered saline (PBS) and was spun in a refrigerated centrifuge at 10,000 rpm for 20 minutes to remove a precipitate. The resulting “norovirus test solution” (950 μL solution) was used in the following examples.
The “real-time PCR” in the following examples was performed in accordance with a document “Detection Method for Norovirus” attached to a notice (Notice No. 1105001 from the Inspection and Safety Division, dated Nov. 5, 2003. See http://www.mhlw.go.jp/topics/syokuchu/kanren/kanshi/031105-1.html) issued by the Director of the Inspection and Safety Division, Department of Food Safety, Pharmaceutical and Food Safety Bureau, Ministry of Health, Labour and Welfare.
The real-time PCR counts the number of viral genomes in the states of […] in FIG. 1. In the following examples, only elimination of (the RNA of) a norovirus illustrated in (c) is rated as “efficacious”, and the survival of (the RNA of) a norovirus illustrated in (b) is rated as “inefficacious” even if the infectivity and proliferative capacity of the norovirus are lost. Nevertheless, an anti-norovirus composition according to the present invention is rated as more efficacious than conventional compositions. Taking the state of a norovirus illustrated in (b) into account, an anti-norovirus composition according to the present invention should therefore have still higher practical efficacy.
Twenty-five microliters of the norovirus test solution and 25 μL of each of the compositions (A1 to A5 or B1 to B7) were sufficiently mixed. […] After the diluted solution was subjected to treatments, such as RNA extraction and cDNA synthesis, viral genome RNAs remaining in the diluted solution was counted by real-time PCR. […] These measured values for the sample solutions and the corresponding controls were compared to determine the inhibition rates of the compositions for the norovirus.

| Compound | efficacy for a norovirus (in words) |
| --- | --- |
| O=C(O)c1cc(O)c(O)c(O)c1 [gallic acid] | no efficacy |
| CCCOC(=O)c1cc(O)c(O)c(O)c1 [propyl gallate, gallic acid propyl ester] | no efficacy |
| catechin | no efficacy |
